Measured values taken from article PMC8890542, “Discovery of novel paeonol-based derivatives against skin inflammation in vitro and in vivo” (Journal of Enzyme Inhibition and Medicinal Chemistry, 2022).

Legend:
JNK [1] = assay: Western blot, LPS-induced JNK phosphorylation in RAW264.7; assay type: cell-based, mouse; conditions: LPS (0.5 μg/mL) 30 min
Procedure: (§1) RAW264.7 cells were seeded into 6-well plate with 2 × 10^6 cells per well and maintained about 24 h, and then pre-treated with compound B12 (2.5, 5, 10 µM) for 1 h, co-treated with LPS (0.5 µg/mL) for 0.5 h or 24 h. Western blotting assay was performed as the method described previously. Briefly, the cells were lysed in […] RIPA cell lysis buffer (Contains PMSF and phosphatase inhibitors, Beyotime China) and incubated on ice for 30 min. Collecting supernatant by centrifugation. The same amount of protein was separated by SDS-PAGE and transferred to PVDF membrane (GE Healthcare, Amersham, UK). The blotted membrane incubated with the primary antibodies and allowed to react for an additional 16 h at 4 °C. All antibodies obtain from Cell Signalling Technology, Boston, MA. The membranes incubated with a 1:5000 dilutions of HRP-conjugated secondary antibody (Beyotime Biotech, Nantong, China) for 1 h at room temperature. Signals were visualised using ECL system (Thermo Fisher Scientific, Waltham, MA).

STAT3 = assay: Western blot, SUV-induced STAT3 phosphorylation in HaCaT cells; assay type: cell-based, human; conditions: 2.5 μM to 10 μM, 6 h before 40 KJ/m^2 SUV
Procedure: (§2) HaCaT cells were seeded into 6-well plate with 2 × 10^6 cells per well. After 24 h culture and 12 h starvation, they were stimulated with SUV irradiation. The cells were irritated with 40 KJ/m^2 doses of SUV at 30 min. In order to study the effect of compound B12, the cells were starved in serum-free medium for 12 h, and then pre-treated with compound B12 (2.5, 5, 10 μM) for 6 h before SUV irradiation. Follow the same steps as above to transfer the electrophoretic band to PVDF membrane. All steps were performed in the same way as above except that the types of primary and secondary antibodies were different.

LPS-induced HaCaT cells = assay: Hyperproliferation assay, LPS-stimulated HaCaT cells (MTT); assay type: cell-based, human; conditions: pre-treated 6 h, LPS 24 h
Procedure: HaCaT cells were seeded in 96-well plates and cultured at 37 °C in a humidified 5% CO2 atmosphere. When the cell confluency reached 60–70%, HaCaT cells were then starved in serum-free DMEM for 12 h before stimulated by 100 ng/mL LPS for 24 h to mimic hyperproliferative psoriatic keratinocytes. The cell viability was measured by MTT method. Results are expressed as the percentage survival of cells in the cell treated group and the untreated control group (without the tested compound and LPS).

p38 [2] = assay: Western blot, SUV-induced p38 phosphorylation in HaCaT cells; assay type: cell-based, human; conditions: SUV (40 kJ/m^2) 30 min
Procedure: as §2

JNK [3] = assay: Western blot, SUV-induced JNK phosphorylation in HaCaT cells; assay type: cell-based, human; conditions: SUV (40 kJ/m^2) 30 min
Procedure: as §2

NF-κB p65 = assay: Western blot, LPS-induced NF-κB p65 translocation in RAW264.7; assay type: cell-based, mouse; conditions: LPS (0.5 μg/mL) 30 min
Procedure: as §1

[4] = Human liver microsomes stability assay in vitro; assay type: in vitro ADME
Procedure: The livers were homogenised initially in a Tris (0.1 M)/KCl (0.1 M)/EDTA (1 mM)/butylated sodium hydroxytoluene (BHT) (0.02 mM) buffer. Add 1.5 µL control/test compound B12 working solution to 238.5 µL liver microsome working solution, gently mix. Pre-incubate at 37 °C for 5 min. Start the reaction by adding 60 µL NADPH working solution. Mix by pipetting up and down. At each time point: 0, 5, 15, 30 and 60 min, remove 30 µL of reaction mixture to 300 µL of quenching solution. Vortex vigorously for ∼1 min and centrifuge at 4000 rpm at 4 °C for 15 min. Remove 100 µL of the supernatant and mixed with 100 µL distilled water for LC-MS/MS analysis.

COX-2 = assay: Western blot of COX-2 in LPS-stimulated RAW264.7 cells; assay type: cell-based, mouse; conditions: 2.5, 5, 10 µM, 1 h, LPS 24 h
Procedure: as §1

γ-H2AX = assay: Western blot, SUV-induced γ-H2AX in HaCaT cells; assay type: cell-based, human; conditions: 2.5 μM to 10 μM, 6 h before 40 KJ/m^2 SUV
Procedure: as §2

[5] = Cell viability assay (MTT), LO2; assay type: cell-based; conditions: human, LO2 cells, read-out: Cytotoxicity IC50 with LO2
[6] = tested on: IMQ-induced psoriasis mouse model; assay: IMQ-induced psoriasis-like skin inflammation mouse model; assay type: in vivo, BALB/c mice
Text: During treatment for 7 days, to score the severity of inflammation of mouse skin, an objective scoring system was developed based on the clinical psoriasis area and severity index. Erythema, scaling, and thickening were scored independently from 0 to 4 as follows: 0, none; 1, slight; 2, moderate; 3, marked; 4, very marked and weight loss. The cumulative score (erythema plus scaling plus thickening) served to indicate the severity of inflammation (scale 0 ∼ 12). On the 8th day, the mice were taken eyeball blood and back skin. One-half of the samples were immediately fixed in 4% paraformaldehyde and for haematoxylin and eosin (H&E) staining. The other samples were put in a −80 °C freezer. Before used, they were placed at room temperature for 30 min. After that, they were added 1 × PBS proportionally, homogenised and centrifuged. The supernatant was collected and used for ELISA assay and Western blot assay. […] The histological image was obtained using 3[sequence]’s Slide Converter (3[sequence], Hungary).

[7] = Cell viability assay (MTT), RAW264.7; assay type: cell-based, mouse; conditions: mouse, RAW264.7 cells, read-out: Cytotoxicity IC50 with RAW264.7
Procedure: (§3) RAW264.7 cells (1 × 10^4 cells/well) were seeded into 96-well plate and used for experiments after 24 h. Compounds (4 µM, 20 µM and 100 µM) treated cell for 24 h. Forty microliters of MTT solution (5 mg/mL, Sigma-Aldrich) was then added and incubated for an additional 4 h. After 4 h, cell culture supernatants were removed and DMSO (150 µL) was added into per well for dissolving the resulting crystals. Shaking about 1 0 ∼ 15 min and the absorbance at 492 nm was measured by a microplate reader (MQX200, Bio-Tek, Winooski, VT). At least three independent experiments were performed for the determination of IC50 values, which were shown as mean ± SD. All experimental data were analysed by using GraphPad Prism software, version 8.0 (GraphPad Inc.).

RAW264.7 cells = assay: Cell viability assay (MTT), RAW264.7; assay type: cell-based, mouse; conditions: 24 h, read-out: Cytotoxicity IC50 with RAW264.7
Procedure: as §3

[8] = tested on: LPS-induced nitric oxide production in RAW264.7 cells; assay: LPS-induced NO production, Griess Reagent assay; assay type: cell-based, mouse; conditions: Mus musculus
Procedure: RAW264.7 cells (7 × 10^4 cells/well) were seeded into 48-well plate and used for experiments after 24 h. […] After 24 h collect cell supernatant, NO production was measured using Griess Reagent assay (Beyotime). Griess reagent were mixed at a ratio of 1:1, and reacted at room temperature for 15 min. Measurement of absorbance at […] with enzyme reader. At least three independent experiments were performed for the determination of IC50 values, which were shown as mean ± SD. All experimental data were analysed by using GraphPad Prism software, version 8.0 (GraphPad Inc.).

iNOS = assay: Western blot of iNOS in LPS-stimulated RAW264.7 cells; assay type: cell-based, mouse; conditions: 2.5, 5, 10 µM, 1 h, LPS 24 h
Procedure: as §1

P38 [9] = assay: Western blot, LPS-induced p38 phosphorylation in RAW264.7; assay type: cell-based, mouse; conditions: LPS (0.5 μg/mL) 30 min
Procedure: as §1

TOPK = molecular target: T1, TOPK (Homo sapiens, UniProt Q96KB5); assay: Cellular thermal shift assay (CETSA); assay type: binding; conditions: especially at 57 °C
T1 construct: endogenous in cells
T1 sequence (Q96KB5 1-322): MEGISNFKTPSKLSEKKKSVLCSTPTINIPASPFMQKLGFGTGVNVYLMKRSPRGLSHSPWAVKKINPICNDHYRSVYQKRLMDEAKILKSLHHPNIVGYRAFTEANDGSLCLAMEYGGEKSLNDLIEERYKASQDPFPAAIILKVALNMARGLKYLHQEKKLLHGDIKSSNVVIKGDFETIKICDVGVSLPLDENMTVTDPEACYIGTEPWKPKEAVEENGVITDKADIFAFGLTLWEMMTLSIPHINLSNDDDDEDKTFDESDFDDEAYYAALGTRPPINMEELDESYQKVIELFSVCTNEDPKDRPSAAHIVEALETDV
Text: Based on the ligand-induced thermal stabilisation of target proteins, the cellular thermal shift assay (CETSA) assay is likely to validate drug binding, off-target effects or drug resistance in cell lines. To further detect the direct binding of compound B12 with TOPK protein, CETSA was used in this study.

COc1cc(O)c(C(C)=O)cc1NC(=O)Nc1cccc(C(F)(F)F)c1 [Compound B12, 1–(5-acetyl-4-hydroxy-2-methoxyphenyl)-3–(3-(trifluoromethyl)phenyl) urea]
JNK protein phosphorylation (JNK [1]): inhibited
Level of phosphorylated STAT3 (STAT3): gradually decreased
Excessive proliferation of LPS-induced HaCaT cells (LPS-induced HaCaT cells): inhibited excessive proliferation of LPS-induced HaCaT cells in a dose dependent manner
Phosphorylation of p38, SUV-induced (p38 [2]): inhibited
Phosphorylation of JNK, SUV-induced (JNK [3]): inhibited
NF-κB p65 translocation into the nucleus (NF-κB p65): inhibited
CLhep ([4]; human): 8.5 mL/min/kg
half-life ([4]; human liver microsomes): 1.85 h
microsomal CLint ([4]; human liver microsomes): 12.5 µL/min/mg
Expression of COX-2 (COX-2): inhibited by compound B12 in a dose-dependent manner
Level of phosphorylated γ-H2AX (γ-H2AX): gradually decreased
IC50 at 24 h [5]: > 100 µM
Pathological reduction, H&E of skin tissue ([6]; 20 mg/kg, intragastric once a day, 7 days): moderate pathological reduction
Pathological reduction, H&E of skin tissue ([6]; 40 mg/kg, intragastric once a day, 7 days): high pathological reduction
Expression of related proteins (p-STAT3, p-TOPK, TOPK, p-p38, p-JNKs, PCNA, p-H2AX) in mouse skin tissues ([6]; 20 and 40 mg/kg, Western blot): decreased significantly
Experimental symptoms and PASI score ([6]; B12 20 and 40 mg/kg, Dex 20 mg/kg, intragastric once a day, 7 days): significantly attenuated experimental symptoms and PASI score in a dose-dependent manner
IC50 at 24 h [7]: > 50 µM
IC50 (RAW264.7 cells): > 100 µM
IC50 ([8]; LPS (0.5 μg/mL) 24 h): 2.14 µM
inhibition at 10 µM ([8]; compounds 10 μM, 1 h, then LPS (0.5 μg/mL) 24 h, read-out: Inhibition rate±SD (%) against NO production): 95.5 ± 3.26%
Expression of iNOS (iNOS): inhibited by compound B12 in a dose-dependent manner
P38 protein phosphorylation (P38 [9]): inhibited
Thermal stability of TOPK (CETSA) (TOPK): stabilised
